Test results taken from patent US8895585B2, “Nicotinamide derivative or salt thereof” (FUJIFILM Corporation, priority 2010, dated 2014).
“And” between values parts separate entries of the source, which are not always exact repeats. Identical values can stand only once. Like-named read-outs stand apart in the source and are kept apart here.

Legend:
[1] = target: T1, glutathione S-transferase (GST)-fused full-length human Syk protein (Homo sapiens, UniProt P43405); experiment: Syk enzyme assay; assay type: biochemical; conditions: Syk enzyme assay, Test Example 1; read-out: IC50 of Syk-inhibitory activity
T1 construct: (GST)-fused full-length human Syk protein; GST (glutathione S-transferase); purchased Carna Biosciences
Outline: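 GST-tagged full-length human Syk (baculovirus) preincubated with compound 15 min at room temperature (pH 7.0, 10 mM MgCl2), then reacted 40 min with 0.4 μM biotinylated peptide substrate and 27 μM ATP (final). Phosphorylation read by HTRF (615/665 nm) after EDTA stop; IC50 reported.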

[2] = system: THP-1 cells; experiment: TNFα generation assay; assay type: cell-based, human; conditions: Table 22, read-out: IC50 in TNFα generation assay
Outline: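 THP-1 cells differentiated to macrophage-like cells with 10 ng/ml IFN-γ for 2 days, preincubated with compound 30 min at room temperature, then cultured 7 h on plates coated with human IgG (10 μg/ml). Secreted TNFα measured by ELISA or AlphaLISA.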

[3] = Homo sapiens, THP-1, THP-1 cells

Compound | IC50 [1] | IC50 [2, 3] [nM] | IC50 ([2]; THP-1 cells) [nM]
NC(=O)c1cc(F)c(NC[C@@H](N)c2ccsc2)nc1Nc1ccc2ncccc2c1 [Example 014-019, (S)-6-((2-amino-2-(thiophene-3-yl)ethyl)-amino)-5-fluoro-2-((quinolin-6-yl)amino)-nicotinamide] | < 10 nM | 65 to 130 | 
NC(=O)c1cc(F)c(NC2CCCCC2N)nc1Nc1cncc(NC(=O)c2cccc(F)c2F)c1 (stereo not drawn) [Example 027-030] | 10 to 50 nM | 130 to 200 | 
NC(=O)c1cc(F)c(NC2CCCCC2N)nc1Nc1cncc(NC(=O)c2ccco2)c1 (stereo not drawn) [Example 027-033] | < 10 nM | 130 to 200 | 
NC(=O)c1cc(Cl)c(NC2CCCCC2N)nc1Nc1cnc2ccccc2c1 (stereo not drawn) [Example 035-001] | < 10 nM | 65 to 130 | 
NC(=O)c1cc(Br)c(NC2CCCCC2N)nc1Nc1cnc2ccccc2c1 (stereo not drawn) [Example 035-002] | < 10 nM | 65 to 130 | 
Cc1cccc(Nc2nc(NC3CCCCC3N)c(Cl)cc2C(N)=O)c1 (stereo not drawn) [Example 035-005] | < 10 nM | 130 to 200 | 
Cc1cncc(Nc2nc(NC3CCCCC3N)c(Br)cc2C(N)=O)c1 (stereo not drawn) [Example 035-007] | < 10 nM | 65 to 130 | 
Cc1cc(C)cc(Nc2nc(NCCN)c(Br)cc2C(N)=O)c1 [Example 035-009] | < 10 nM and 10 to 50 nM | 130 to 200 | 
NC(=O)c1cc(F)c(N[C@@H]2CCCC[C@@H]2N)nc1Nc1cccc2ncccc12 [Example 37-1, 6-((1R,2S)-2-aminocyclohexylamino)-5-fluoro-2-((quinolin-5-yl)amino)nicotinamide] | < 10 nM | < 65 | 
NC(=O)c1cc(F)c(N[C@@H]2CCCC[C@@H]2N)nc1Nc1cncc2ccccc12 [Example 37-2, 6-((1R,2S)-2-aminocyclohexylamino)-5-fluoro-2-((isoquinolin-4-yl)amino)nicotinamide] | < 10 nM | < 65 | 
NC(=O)c1cc(F)c(N[C@@H]2CCCC[C@@H]2N)nc1Nc1ccc2ncccc2c1 [Example 37-3, 6-((1R,2S)-2-aminocyclohexylamino)-5-fluoro-2-((quinolin-6-yl)amino)nicotinamide] | < 10 nM | < 65 | 
NC(=O)c1cc(F)c(N[C@@H]2CCCC[C@@H]2N)nc1Nc1cnc2ccccc2c1 [Example 37-4, 6-((1R,2S)-2-aminocyclohexylamino)-5-fluoro-2-((quinolin-3-yl)amino)nicotinamide] | < 10 nM | < 65 | 
Cn1ncc2cc(Nc3nc(N[C@@H]4CCCC[C@@H]4N)c(F)cc3C(N)=O)ccc21 [Example 37-5, 6-((1R,2S)-2-aminocyclohexylamino)-5-fluoro-2-((1-methyl-1H-indazol-5-yl)amino)-nicotinamide] | < 10 nM | 65 to 130 | 
CC[C@H](CN)Nc1nc(Nc2ccc3ncccc3c2)c(C(N)=O)cc1F [Example 39-2, (R)-6-((1-aminobutan-2-yl)amino)-5-fluoro-2-((quinolin-6-yl)amino)nicotinamide] | < 10 nM | < 65 | 
C[C@H](CN)Nc1nc(Nc2ccc3ncccc3c2)c(C(N)=O)cc1F [Example 39-3, (R)-6-((1-aminopropan-2-yl)amino)-5-fluoro-2-((quinolin-6-yl)amino)nicotinamide] | < 10 nM | < 65 | 
NC[C@H](Nc1nc(Nc2ccc3ncccc3c2)c(C(N)=O)cc1F)c1ccccc1 [Example 39-4, (R)-6-((2-amino-1-phenylethyl)amino)-5-fluoro-2-((quinolin-6-yl)amino)nicotinamide] | < 10 nM | 65 to 130 | 
NC(=O)c1cc(F)c(N[C@@H]2CCCC[C@@H]2N)nc1Nc1cncc(-c2cccc(N)c2)c1 [Example 043-000] | < 10 nM |  | 65 to 130
Cc1cc(Nc2nc(N[C@H](CCCO)[C@H](C)N)c(F)cc2C(N)=O)cnc1C [Example 044-000] | 10 to 50 nM | 65 to 130 | 
